Laboratory results: patent US10507206B2, “Oral formulations and lipophilic salts of methylnaltrexone” (Wyeth, LLC, priority 2010, dated 2019)

What was measured:
[1] = reported value for comparison; cited from earlier work
[2] = apparent octanol-water partition coefficient (APC) of MNTX salts by HPLC; format: physicochemical; settings: 1-octanol/water, aqueous phase pH between 4.5 and 6.8; for Log P: room temperature; for APC: shaken overnight at room temperature
From the text: The term “apparent partition coefficient,” as used herein, refers to the ratio of concentrations of a compound in any form in the two phases of a mixture of two immiscible solvents at equilibrium. In certain embodiments, the two immiscible solvents are octanol and water. The apparent partition coefficient may be determined under various conditions, for example, temperature, pH, concentration, etc. Apparent partition coefficients have been found useful in estimating the distribution of compounds in the body. Higher apparent partition coefficients denote a more hydrophobic (more lipophilic) compound, while lower apparent partition coefficients denote a hydrophilic compound. The apparent partition coefficient of a compound may be determined by procedures known in the art, for example, in the U.S. Pharmacopeia. The apparent partition coefficient may be determined by the procedure used to determine the apparent partition coefficients of methylnaltrexone dodecyl sulfate and methylnaltrexone heptyl sulfate in the Examples.
As a measure of lipophilicity of the resulting ion pair, a solution of the composition yields an apparent octanol/water partition coefficient for methylnaltrexone of at least 0.25 at a pH between 1 and 4. The apparent octanol/water partition coefficient as used herein is determined at room temperature at a concentration of approximately 0.5 mg/mL. Exemplary methods for the determination of apparent octanol/water partition coefficient of methylnaltrexone salts are described in the Examples below.
Ion pairs of methylnaltrexone with amphiphilic pharmaceutically acceptable excipients were prepared and the apparent octanol-water partition coefficient (APC) was measured and compared to that of methylnaltrexone bromide. A pre-determined amount of each of MNTX-heptyl sulfate and MNTX-dodecyl sulfate was dissolved in 2 mL of 1-octanol that was saturated with water. Two mL of water that was saturated with 1-octanol was added to each MNTX salt solution. The mixtures were shaken overnight at room temperature, and 1 mL of the 1-octanol phase was then diluted to 10 mL with the mobile phase used for chromatographic (HPLC) analysis of the samples. And 1 mL of the aqueous phase was diluted to 5 mL with the mobile phase. The samples were then analyzed by HPLC to determine the apparent partition coefficient and log P for each MNTX salt. The pH of the aqueous phases for each of the salts was between 4.5 and 6.8.

[3] = intravenous 0.01-0.37 mg/kg, methadone maintenance patients; cited from earlier work
[4] = system: constipation in methadone maintenance patients; settings: intravenous 0.01-0.37 mg/kg; cited from earlier work
[5] = oral, in general; cited from earlier work

C[N@+]1(CC2CC2)CC[C@]23c4c5ccc(O)c4O[C@H]2C(=O)CC[C@@]3(O)[C@H]1C5.[Br-] [MNTX, (R)—N-(cyclopropylmethyl) noroxymorphone methobromide]
reported Log P [1]: −1.605 | reported partition coefficient [1]: 0.025

CCCCCCCOS(=O)(=O)[O-].C[N+]1(CC2CC2)CCC23c4c5ccc(O)c4OC2C(=O)CCC3(O)C1C5 (stereo not shown) [MNTX-heptyl sulfate, methylnaltrexone heptyl sulfate]
Log P [2]: 0.292 | APC [2]: 1.961

C[N+]1(CC2CC2)CC[C@]23c4c5ccc(O)c4O[C@H]2C(=O)CC[C@@]3(O)[C@H]1C5 (stereo partly drawn) [methylnaltrexone, (R)—N-methylnaltrexone]
average peak plasma levels [3]: 162 ng/mL | peak plasma levels, range [3]: 30 to 774 ng/mL | laxation [4]: induced “immediate” laxation | methylnaltrexone absorbed into the bloodstream when delivered orally [5]: less than 5%

methylnaltrexone dodecyl sulfate [MNTX-dodecyl sulfate]
Log P [2]: 1.505 | APC [2]: 32.014
